Source: patent publication US10941157B2, “Pesticidal compositions and uses thereof” (Gilead Apollo, LLC, priority 2015, dated 2021)
Converted amounts (≈) assume the structure as drawn.

How the values were obtained:
[1] = tested on: Blumeria graminis f. sp. hordei; assay: Foliar protection test for barley powdery mildew control; type: in vivo; settings: foliar spray on Hordeum vulgare cv. Perry, inoculated 24 hours after treatment, evaluated 7 days later
How it was run: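 Protective foliar test: compound atomized onto both leaf surfaces of 6-day-old Hordeum vulgare cv. Perry, followed after 24 h by spore-cloud inoculation from colonized untreated plants. Disease rated on leaves 7 days on, plants held at 20 to 22° C and 70% RH.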

[2] = tested on: Fusarium moniliforme (Fm); assay: In vitro pathogen growth inhibition assay, Fm; type: cell-based; settings: Fusarium verticillioides; ≥90% growth inhibition; 48 hours; vs 2% DMSO control; read-out: Compound Concentration (ppm) sufficient for ≥90% inhibition of Fm
How it was run: (§1)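 Value reported is the compound concentration reaching ≥90% growth inhibition, from OD readings at 24 and 48 h after blank subtraction, confirmed visually. Inoculum was spores diluted in 17% V8 medium, except Rs, using 1.5 mm mycelial plugs in ¼ PDB; actual compound concentration corrected via OD600.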

[3] = tested on: Fusarium virguliforme (Fv); assay: In vitro pathogen growth inhibition assay, Fv; type: cell-based; settings: ≥90% growth inhibition, 48 hours, vs 2% DMSO control, read-out: Compound Concentration (ppm) sufficient for ≥90% inhibition of Fv
How it was run: as §1

[4] = tested on: Blumeria graminis f. sp. hordei; assay: Early foliar disease control via seed treatment (barley powdery mildew); type: in vivo; settings: seed treatment rate 0.025 mg/seed; barley inoculated 7 days after planting, evaluated 7 days later
Experimental: Barley seeds (Hordeum vulgare cv. Perry or Conlon) were treated with a test compound dissolved in pure acetone, in which the acetone solution (1 mL) was used per 50 seeds in glass jars in a fume hood. The seeds were swirled in the glass jars by hand until no obvious presence of acetone remained and the seeds were mostly dry. Plants were grown for 7 days in 2-inch square pots containing Metromix 200 medium amended with fertilizer. […] After inoculation with the pathogen of Blumeria graminis f. sp. hordei, plants were kept at conditions of 20 to 22° C., 200 uM of light, 70% humidity to facilitate infection and disease development. At 7 days after planting (1st true leaf fully expanded), the plants were moved to the cooler chamber and inoculated by shaking well-colonized, untreated stock plants above the treated material. […] Efficacy was evaluated in 7 days later by examining leaves for colonization and growth of powdery mildew. Each side of each leaf was assigned a severity rating of 0, 1, 5, 10, 25, 50, 75, or 100 percent diseased area. Table 14 lists the results of barley powdery mildew control upon seed treatment with test compounds.

[5] = tested on: Rhizoctonia solani; assay: Seed protectant for soybean seedling disease, R. solani; type: in vivo; settings: soybean from treated seeds, 0.025 mg/seed, R. solani inoculated
Experimental: (§2) The pathogen of Rhizoctonia solani inoculum was grown on sterile sorghum; and the pathogen of Pythium ultimum inoculum was grown on white millet.
(§3) Soybean seeds (Glycine max cv. AG4832) were planted in 2.5-inch square pots containing Berger BM2 germination mix amended with fertilizer (e.g., 14-14-14). Pots with soil were inoculated with the pathogen of R. solani or P. ultimum at time of planting. A hole was pressed into the soil to a depth of about 2 to 3 cm; the inoculum was added to the hole, followed by the seed which was then covered with soil. Two seeds per pot were planted. Plants were grown in a growth chamber at conditions of 20 to 24° C., 14 hour light cycle, 500 uM of light, and 65% humidity. The pots inoculated with P. ultimum were sub-irrigated every day; and the pots inoculated with R. solani were sub-irrigated every other day.
(§4) Seedling emergence was captured at 7 and 14 days after seeding. At 14 days, the top of the plant was removed and fresh weight was recorded. The plant weights from the seeds treated with test compounds (e.g., in formulations) were compared to the ones either from the inoculated non-treated seeds or non-inoculated non-treated seeds. Table 10 lists the results of the R. solani control in soybean upon seed treatment with test compounds, and Table 11 lists the results of the P. ultimum control in soybean upon seed treatment with test compounds, respectively.

[6] = tested on: Pythium ultimum; assay: Seed protectant for soybean seedling disease, P. ultimum; type: in vivo; settings: soybean from treated seeds, 0.025 mg/seed, P. ultimum inoculated
Experimental: as §2, §3, §4

[7] = tested on: Fusarium graminearum; type: in vivo; settings: spray on flowering Triticum aestivum cv. Samson, inoculated 24 hours after treatment, evaluated 14 days later
[8] = tested on: Puccinia triticina; assay: Foliar protection test for wheat leaf rust control; type: in vivo; settings: foliar application to wheat (Triticum aestivum cv. Winterhawk), evaluated 10 days later
[9] = tested on: Fusarium graminearum; type: in vivo; settings: corn from treated seeds, 0.025 mg/seed, F. graminearum inoculated, Table 12
[10] = tested on: Rhizoctonia solani (Rs); assay: In vitro pathogen growth inhibition assay, Rs (mycelial plugs); type: cell-based; settings: Rhizoctonia solani, 48 h, ≥90% growth inhibition; mycelial plugs; 48 hours; vs 2% DMSO control; read-out: Compound Concentration (ppm) sufficient for ≥90% inhibition of Rs
How it was run: as §1

[11] = tested on: Septoria tritici (St); assay: In vitro pathogen growth inhibition assay, St; type: cell-based; settings: ≥90% growth inhibition; 48 hours; vs 2% DMSO control
How it was run: as §1

[12] = tested on: Phakopsora pachyrhizi; assay: Foliar protection test for Asian soybean rust control; type: in vivo; settings: foliar application to soybean (Glycine max AG4832), percent disease area evaluated 14 days later
[13] = tested on: Sphaerotheca fuliginea; assay: Foliar protection for cucumber powdery mildew control; type: in vivo; settings: foliar spray on Cucumis sativus cv. Straight Eight, inoculated 24 hours after treatment, evaluated 7 days later
How it was run: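 Protective foliar spray on 10-day-old Straight Eight cucumbers, with S. fuliginea spores dusted from infected stock plants 24 h after treatment. Disease developed at 23–27 °C, 60% RH and a 16 h photoperiod. Leaves were rated for mildew growth after 7 days; test rates 10 ppm or below.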

[14] = tested on: Mycosphaerella graminicola (synthetic Septoria tritici); assay: Foliar protection test for wheat septoria leaf blotch control; type: in vivo; settings: foliar spray on Triticum aestivum cv. WinterHawk, inoculated 1 hour after treatment, evaluated 16 days later
[15] = percentage of non-inoculated non-treated controls

CCOC(=O)c1sc2c(c1C)c(=O)n(C(C)(C)C(=O)NC(C)C)c(=O)n2C[C@H](OCCC#N)c1cc(F)ccc1OC [Compound I-181, (R)-ethyl-1-(2-(2-cyanoethoxy)-2-(5-fluoro-2-methoxyphenyl)ethyl)-3-(1-(isopropylamino)-2-methyl-1-oxopropan-2-yl)-5-methyl-2,4-dioxo-1,2,3,4-tetrahydrothieno[2,3-d]pyrimidine-6-carboxylate]
Barley Powdery Mildew Control at a compound concentration of 10 ppm or lower [1]: AA (≥85% control of barley powdery mildew) | IC90 [2]: 0.08 µg/mL (≈ 0.133 µM) | IC90 [3]: 0.4 µg/mL (≈ 0.664 µM) | Barley Powdery Mildew Reduction (%) [4]: 57% | Plant Weight ([5]; fresh weight at 14 days): 3.16 g | Improvement in plant weight [5, 15]: 39.4% | Plant Weight ([6]; fresh weight at 14 days): 4.73 g | Improvement in plant weight [6, 15]: 76% | Wheat Fusarium Head Blight Control at a compound concentration of 25 ppm or lower [7]: B (from 50 to 69% control of wheat fusarium head blight) | Wheat Leaf Rust Control at a compound concentration of 10 ppm or lower [8]: AA (≥85% control of wheat leaf rust) | Plant Height [9]: 47.63 cm | IC90 [10]: 0.08 µg/mL (≈ 0.133 µM) | Compound Concentration (ppm) sufficient for ≥90% inhibition of St [11]: ≥10.0 ppm | Asian Soybean Rust Control at a compound concentration of 25 ppm or lower [12]: B (from 50 to 69% control of Asian soybean rust) | Cucumber Powdery Mildew Control at a compound concentration of 10 ppm or lower [13]: AA (≥85% control of cucumber powdery mildew) | Septoria Leaf Blotch Control at a compound concentration of 25 ppm or lower [14]: B (from 50 to 69% control of wheat septoria leaf blotch)
